From PubChem BioAssay (NCI)
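Results reflect a 48-hour exposure of cells in 96-well plates to compound at five concentrations. GI50 = concentration required for 50% inhibition of growth. TGI denotes the concentration required for complete inhibition of growth.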

Assays:
Test in all cases: NCI-60 cell line screen, 48 h
MOLT-4 leukemia = test system: MOLT-4 leukemia
UACC-257 melanoma = test system: UACC-257 melanoma
786-0 renal = test system: 786-0 renal
RPMI-8226 leukemia = test system: RPMI-8226 leukemia
NCI/ADR-RES ovarian = test system: NCI/ADR-RES ovarian
HCT-116 colon = test system: HCT-116 colon
CCRF-CEM leukemia = test system: CCRF-CEM leukemia
PC-3 prostate = test system: PC-3 prostate
HCT-15 colon = test system: HCT-15 colon
A498 renal = test system: A498 renal
MDA-MB-435 = test system: MDA-MB-435
IGROV1 ovarian = test system: IGROV1 ovarian
SK-OV-3 ovarian = test system: SK-OV-3 ovarian
SN12C renal = test system: SN12C renal
OVCAR-8 ovarian = test system: OVCAR-8 ovarian
EKVX NSCLC = test system: EKVX NSCLC
BT-549 breast = test system: BT-549 breast
A549 NSCLC = test system: A549 NSCLC
SF-539 CNS = test system: SF-539 CNS
ACHN renal = test system: ACHN renal
M14 melanoma = test system: M14 melanoma
T-47D breast = test system: T-47D breast
KM12 colon = test system: KM12 colon
SNB-19 CNS = test system: SNB-19 CNS
NCI-H460 lung = test system: NCI-H460 lung
HCC-2998 colon = test system: HCC-2998 colon
COLO 205 colon = test system: COLO 205 colon
RXF 393 renal = test system: RXF 393 renal
OVCAR-5 ovarian = test system: OVCAR-5 ovarian
OVCAR-3 ovarian = test system: OVCAR-3 ovarian
SW-620 colon = test system: SW-620 colon
SR leukemia = test system: SR leukemia
NCI-H23 lung = test system: NCI-H23 lung
SK-MEL-5 melanoma = test system: SK-MEL-5 melanoma
SF-295 CNS = test system: SF-295 CNS
OVCAR-4 ovarian = test system: OVCAR-4 ovarian
SK-MEL-2 melanoma = test system: SK-MEL-2 melanoma
MDA-MB-231 breast = test system: MDA-MB-231 breast
SNB-75 CNS = test system: SNB-75 CNS
NCI-H226 lung = test system: NCI-H226 lung
HOP-62 NSCLC = test system: HOP-62 NSCLC
LOX IMVI melanoma = test system: LOX IMVI melanoma
MALME-3M melanoma = test system: MALME-3M melanoma
NCI-H522 lung = test system: NCI-H522 lung
UO-31 renal = test system: UO-31 renal
U251 CNS = test system: U251 CNS
TK-10 renal = test system: TK-10 renal
HT29 colon = test system: HT29 colon
DU-145 prostate = test system: DU-145 prostate
SF-268 CNS = test system: SF-268 CNS
MCF7 breast = test system: MCF7 breast
HOP-92 NSCLC = test system: HOP-92 NSCLC
CAKI-1 renal = test system: CAKI-1 renal
HL-60(TB) leukemia = test system: HL-60(TB) leukemia
UACC-62 melanoma = test system: UACC-62 melanoma
K-562 leukemia = test system: K-562 leukemia
SK-MEL-28 melanoma = test system: SK-MEL-28 melanoma
HS 578T breast = test system: HS 578T breast

For `CCC(CC)n1c(=O)c(SC2=NC3C(NN2)N(CC)C(=O)N3CC)c(C(=O)O)c2ccccc21` (configuration not stated), the GI50 (MOLT-4 leukemia) was 1150 nM, the TGI (MOLT-4 leukemia) was > 48200 nM and the GI50 (UACC-257 melanoma) was 5530 nM. For the same molecule, the TGI (UACC-257 melanoma) was > 100000 nM, the GI50 (786-0 renal) was 1530 nM and the TGI (786-0 renal) was > 100000 nM. The GI50 (RPMI-8226 leukemia) was 3760 nM, the TGI (RPMI-8226 leukemia) was > 100000 nM and the GI50 (NCI/ADR-RES ovarian) was 974 nM. The GI50 (HCT-116 colon) was 1010 nM, the TGI (HCT-116 colon) was > 33700 nM and the GI50 (CCRF-CEM leukemia) was 1130 nM. The TGI (CCRF-CEM leukemia) was > 100000 nM, the GI50 (PC-3 prostate) was 1250 nM and the TGI (PC-3 prostate) was > 100000 nM. For the same molecule, the GI50 (HCT-15 colon) was 969 nM, the TGI (HCT-15 colon) was > 100000 nM and the GI50 (A498 renal) was 33700 nM. The TGI (A498 renal) was > 87200 nM, the GI50 (MDA-MB-435) was 2030 nM and the TGI (MDA-MB-435) was 5010 nM. For the same molecule, the GI50 (IGROV1 ovarian) was 1500 nM, the TGI (IGROV1 ovarian) was > 100000 nM and the GI50 (SK-OV-3 ovarian) was 1450 nM. The TGI (SK-OV-3 ovarian) was > 94100 nM, the GI50 (SN12C renal) was 1310 nM and the TGI (SN12C renal) was > 100000 nM. For the same molecule, the GI50 (OVCAR-8 ovarian) was 1050 nM, the GI50 (EKVX NSCLC) was 6670 nM and the TGI (EKVX NSCLC) was > 100000 nM. It also gave a GI50 (BT-549 breast) of 1470 nM, a TGI (BT-549 breast) of 6720 nM and a GI50 (A549 NSCLC) of 1510 nM. The TGI (A549 NSCLC) was > 100000 nM, the GI50 (SF-539 CNS) was 811 nM and the TGI (SF-539 CNS) was 2380 nM. For the same molecule, the GI50 (ACHN renal) was 1580 nM, the TGI (ACHN renal) was > 100000 nM and the GI50 (M14 melanoma) was 1050 nM. For the same molecule, the TGI (M14 melanoma) was > 55200 nM, the GI50 (T-47D breast) was 6140 nM and the TGI (T-47D breast) was > 100000 nM. For the same molecule, the GI50 (KM12 colon) was 1200 nM, the TGI (KM12 colon) was > 100000 nM and the GI50 (SNB-19 CNS) was 1660 nM. For the same molecule, the TGI (SNB-19 CNS) was > 100000 nM, the GI50 (NCI-H460 lung) was 1110 nM and the TGI (NCI-H460 lung) was > 54100 nM. The GI50 (HCC-2998 colon) was 1080 nM, the GI50 (COLO 205 colon) was 771 nM and the TGI (COLO 205 colon) was 1830 nM. For the same molecule, the GI50 (RXF 393 renal) was 805 nM, the TGI (RXF 393 renal) was 3280 nM and the GI50 (OVCAR-5 ovarian) was 1280 nM. For the same molecule, the TGI (OVCAR-5 ovarian) was > 100000 nM, the GI50 (OVCAR-3 ovarian) was 966 nM and the TGI (OVCAR-3 ovarian) was 3490 nM. The GI50 (SW-620 colon) was 1480 nM, the TGI (SW-620 colon) was > 100000 nM and the GI50 (SR leukemia) was 805 nM. For the same molecule, the TGI (SR leukemia) was > 49000 nM, the GI50 (NCI-H23 lung) was 3590 nM and the TGI (NCI-H23 lung) was > 100000 nM. The GI50 (SK-MEL-5 melanoma) was 1380 nM, the TGI (SK-MEL-5 melanoma) was 7640 nM and the GI50 (SF-295 CNS) was 1020 nM. The TGI (SF-295 CNS) was > 46800 nM, the GI50 (OVCAR-4 ovarian) was 6560 nM and the TGI (OVCAR-4 ovarian) was > 100000 nM. For the same molecule, the GI50 (SK-MEL-2 melanoma) was 1080 nM, the TGI (SK-MEL-2 melanoma) was > 55000 nM and the GI50 (MDA-MB-231 breast) was 1270 nM. For the same molecule, the TGI (MDA-MB-231 breast) was > 71900 nM, the GI50 (SNB-75 CNS) was 1210 nM and the TGI (SNB-75 CNS) was > 33400 nM. It also gave a GI50 (NCI-H226 lung) of 1110 nM, a TGI (NCI-H226 lung) of 5780 nM and a GI50 (HOP-62 NSCLC) of 1460 nM. The TGI (HOP-62 NSCLC) was > 57000 nM, the GI50 (LOX IMVI melanoma) was 1260 nM and the TGI (LOX IMVI melanoma) was > 100000 nM. The GI50 (MALME-3M melanoma) was 2660 nM, the TGI (MALME-3M melanoma) was > 100000 nM and the GI50 (NCI-H522 lung) was 578 nM. For the same molecule, the TGI (NCI-H522 lung) was 1460 nM, the GI50 (UO-31 renal) was 1540 nM and the TGI (UO-31 renal) was > 100000 nM. For the same molecule, the GI50 (U251 CNS) was 1130 nM, the TGI (U251 CNS) was > 100000 nM and the GI50 (TK-10 renal) was 14500 nM. The TGI (TK-10 renal) was > 89800 nM, the GI50 (HT29 colon) was 909 nM and the GI50 (DU-145 prostate) was 1300 nM. The TGI (DU-145 prostate) was > 100000 nM, the GI50 (SF-268 CNS) was 2030 nM and the TGI (SF-268 CNS) was > 100000 nM. For the same molecule, the GI50 (MCF7 breast) was 1030 nM, the TGI (MCF7 breast) was > 100000 nM and the GI50 (HOP-92 NSCLC) was 18300 nM. For the same molecule, the TGI (HOP-92 NSCLC) was > 100000 nM, the GI50 (CAKI-1 renal) was 1220 nM and the TGI (CAKI-1 renal) was 32300 nM. The GI50 (HL-60(TB) leukemia) was 767 nM, the TGI (HL-60(TB) leukemia) was 2300 nM and the GI50 (UACC-62 melanoma) was 1200 nM. For the same molecule, the TGI (UACC-62 melanoma) was 36500 nM, the GI50 (K-562 leukemia) was 1000 nM and the TGI (K-562 leukemia) was > 100000 nM. For the same molecule, the GI50 (SK-MEL-28 melanoma) was 2200 nM, the TGI (SK-MEL-28 melanoma) was > 100000 nM and the GI50 (HS 578T breast) was 1220 nM. The TGI (HS 578T breast) was 99200 nM.
